Results as given in patent publication US8697694B2, “Substituted pyridine and pyrimidine derivatives and their use in treating viral infections” (priority 2008, dated 2014).

Each compound was assayed on HCV replicon cells (assay: Cell-based HCV replicon assay (replicon RNA level by real time PCR, Taqman)). Conditions: Hepatitis C virus, 72 h, HCV replicon cells, harvested on day 3, replicon RNA by real time PCR; calculated EC90 reported as range class; read-out: EC90 (μM) range.
Method in brief: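 Readout: ΔCT between NS5B replicon RNA and GAPDH by real-time RT-PCR in lysates harvested on day 3, fitted sigmoidally; EC50 at ΔCT=1, EC90 at ΔCT=3.2. Compounds tested at ten 2-fold dilutions from 25 μM to 1 μM start, 10% FBS, 0.5% DMSO.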

SMILES | EC90 [µM]
CCCCCNc1nc(C)c(-c2nc3ccccc3s2)c(N[C@@H]2C[C@H](CO)[C@@H](O)[C@H]2O)n1 [Example 435] | < 0.5
CC(C)(C)CNc1nc(Cl)c(-c2nc3ccccc3s2)c(N[C@@H]2C[C@H](CO)[C@@H](O)[C@H]2O)n1 [Example 436] | < 0.5
Cc1nc(NCC(C)(C)C)nc(N[C@@H]2C[C@H](CO)[C@@H](O)[C@H]2O)c1-c1nc2ccccc2s1 [Example 437] | < 0.5
COC[C@H](C)Nc1nc(Cl)c(-c2nc3ccccc3s2)c(N[C@@H]2C[C@H](CO)[C@@H](O)[C@H]2O)n1 [Example 438] | < 0.5
COC[C@H](C)Nc1nc(C)c(-c2nc3ccccc3s2)c(N[C@@H]2C[C@H](CO)[C@@H](O)[C@H]2O)n1 [Example 439] | < 0.5
C[C@H](Nc1nc(Cl)c(-c2nc3ccccc3s2)c(N[C@@H]2C[C@H](CO)[C@@H](O)[C@H]2O)n1)c1ccccc1 [Example 440] | 0.5 to 5
OC[C@H]1C[C@@H](Nc2nc(NCCc3ccccc3)nc(Cl)c2-c2nc3ccccc3s2)[C@H](O)[C@@H]1O [Example 444] | < 0.5
Cc1nc(NCCc2ccccc2)nc(N[C@@H]2C[C@H](CO)[C@@H](O)[C@H]2O)c1-c1nc2ccccc2s1 [Example 445] | < 0.5
CCCCCNc1nc(Cl)c(-c2cc3cc(CCC)nc(C)c3o2)c(N[C@@H]2C[C@H](CO)[C@@H](O)[C@H]2O)n1 [Example 446] | < 0.5
OC[C@H]1C[C@@H](Nc2nc(NCC3CCOCC3)nc(Cl)c2-c2nc3ccccc3s2)[C@H](O)[C@@H]1O [Example 447] | < 0.5
CCCCCNc1nc(C)c(-c2cc3cc(CCC)nc(C)c3o2)c(N[C@@H]2C[C@H](CO)[C@@H](O)[C@H]2O)n1 [Example 448] | < 0.5
Cc1nc(NCC2CCOCC2)nc(N[C@@H]2C[C@H](CO)[C@@H](O)[C@H]2O)c1-c1nc2ccccc2s1 [Example 449] | < 0.5
CCCCCNc1nc(Cl)c(-c2cc3cc(C)nc(C)c3o2)c(N[C@@H]2C[C@H](CO)[C@@H](O)[C@H]2O)n1 [Example 450] | < 0.5
CCCCCNc1nc(Cl)c(-c2cc3cc(C)ncc3o2)c(N[C@@H]2C[C@H](CO)[C@@H](O)[C@H]2O)n1 [Example 451] | < 0.5
CCCCCNc1nc(C)c(-c2cc3cc(C)nc(C)c3o2)c(N[C@@H]2C[C@H](CO)[C@@H](O)[C@H]2O)n1 [Example 452] | < 0.5
CCCCCNc1nc(C)c(-c2cc3cc(C)ncc3o2)c(N[C@@H]2C[C@H](CO)[C@@H](O)[C@H]2O)n1 [Example 453] | < 0.5
CCCCCCNc1nc(Cl)c(-c2nc3ccccc3s2)c(N[C@@H]2C[C@H](CO)[C@@H](O)[C@H]2O)n1 [Example 454] | < 0.5
CCCCCCNc1nc(C)c(-c2nc3ccccc3s2)c(N[C@@H]2C[C@H](CO)[C@@H](O)[C@H]2O)n1 [Example 455] | < 0.5
Cc1cc2cc(-c3c(Cl)nc(NCC(F)(F)F)nc3N[C@@H]3C[C@H](CO)[C@@H](O)[C@H]3O)oc2c(C)n1 [Example 456] | < 0.5
Cc1cc2cc(-c3c(C)nc(NCC(F)(F)F)nc3N[C@@H]3C[C@H](CO)[C@@H](O)[C@H]3O)oc2c(C)n1 [Example 457] | < 0.5
Cc1cc2cc(-c3c(Cl)nc(NCC4CCOCC4)nc3N[C@@H]3C[C@H](CO)[C@@H](O)[C@H]3O)oc2c(C)n1 [Example 458] | < 0.5

SMILES | EC90 [µM]
Cc1cc2cc(-c3c(Cl)nc(NCC4CCCCC4)nc3N[C@@H]3C[C@H](CO)[C@@H](O)[C@H]3O)oc2c(C)n1 [Example 460] | < 0.5
Cc1cc2cc(-c3c(C)nc(NCC4CCCCC4)nc3N[C@@H]3C[C@H](CO)[C@@H](O)[C@H]3O)oc2c(C)n1 [Example 461] | < 0.5
Cc1nc(NCc2ccccn2)nc(N[C@@H]2C[C@H](CO)[C@H]3OC(C)(C)O[C@H]32)c1-c1nc2ccccc2s1 [Example 462] | 0.5 to 5
Cc1nc(NCc2cccnc2)nc(N[C@@H]2C[C@H](CO)[C@H]3OC(C)(C)O[C@H]32)c1-c1nc2ccccc2s1 [Example 463] | < 0.5
Cc1nc(NCc2ccncc2)nc(N[C@@H]2C[C@H](CO)[C@H]3OC(C)(C)O[C@H]32)c1-c1nc2ccccc2s1 [Example 464] | < 0.5
Cc1nc(NCc2ccccn2)nc(N[C@@H]2C[C@H](CO)[C@@H](O)[C@H]2O)c1-c1nc2ccccc2s1 [Example 465] | < 0.5
Cc1nc(NCc2cccnc2)nc(N[C@@H]2C[C@H](CO)[C@@H](O)[C@H]2O)c1-c1nc2ccccc2s1 [Example 466] | < 0.5
Cc1nc(NCc2cccn2C)nc(N[C@@H]2C[C@H](CO)[C@H]3OC(C)(C)O[C@H]32)c1-c1nc2ccccc2s1 [Example 468] | < 0.5
Cc1nc(NCc2ccco2)nc(N[C@@H]2C[C@H](CO)[C@H]3OC(C)(C)O[C@H]32)c1-c1nc2ccccc2s1 [Example 469] | < 0.5
Cc1nc(NCc2ccco2)nc(N[C@@H]2C[C@H](CO)[C@@H](O)[C@H]2O)c1-c1nc2ccccc2s1 [Example 470] | < 0.5
COC(C)(C)CNc1nc(C)c(-c2nc3ccccc3s2)c(N[C@@H]2C[C@H](CO)[C@H]3OC(C)(C)O[C@H]32)n1 [Example 471] | < 0.5
Cc1nc(NCc2nccs2)nc(N[C@@H]2C[C@H](CO)[C@H]3OC(C)(C)O[C@H]32)c1-c1nc2ccccc2s1 [Example 472] | < 0.5
COC(C)(C)CNc1nc(C)c(-c2nc3ccccc3s2)c(N[C@@H]2C[C@H](CO)[C@@H](O)[C@H]2O)n1 [Example 473] | < 0.5
Cc1nc(NCc2nccs2)nc(N[C@@H]2C[C@H](CO)[C@@H](O)[C@H]2O)c1-c1nc2ccccc2s1 [Example 474] | < 0.5
Cc1nc(NCc2cc3ccccc3s2)nc(N[C@@H]2C[C@H](CO)[C@H]3OC(C)(C)O[C@H]32)c1-c1nc2ccccc2s1 [Example 475] | 0.5 to 5
Cc1ccsc1CNc1nc(C)c(-c2nc3ccccc3s2)c(N[C@@H]2C[C@H](CO)[C@H]3OC(C)(C)O[C@H]32)n1 [Example 476] | < 0.5
Cc1csc(CNc2nc(C)c(-c3nc4ccccc4s3)c(N[C@@H]3C[C@H](CO)[C@H]4OC(C)(C)O[C@H]43)n2)c1 [Example 477] | < 0.5
Cc1nc(NCc2cc3ccccc3s2)nc(N[C@@H]2C[C@H](CO)[C@@H](O)[C@H]2O)c1-c1nc2ccccc2s1 [Example 478] | < 0.5
Cc1ccsc1CNc1nc(C)c(-c2nc3ccccc3s2)c(N[C@@H]2C[C@H](CO)[C@@H](O)[C@H]2O)n1 [Example 479] | < 0.5
Cc1csc(CNc2nc(C)c(-c3nc4ccccc4s3)c(N[C@@H]3C[C@H](CO)[C@@H](O)[C@H]3O)n2)c1 [Example 480] | < 0.5
Cc1nc(NCc2cccc[n+]2[O-])nc(N[C@@H]2C[C@H](CO)[C@H]3OC(C)(C)O[C@H]32)c1-c1nc2ccccc2s1 [Example 481] | > 5

SMILES | EC90 [µM]
Cc1nc(NCc2cccc[n+]2[O-])nc(N[C@@H]2C[C@H](CO)[C@@H](O)[C@H]2O)c1-c1nc2ccccc2s1 [Example 482] | 0.5 to 5
COc1cccc(CNc2nc(C)c(-c3nc4ccccc4s3)c(N[C@@H]3C[C@H](CO)[C@H]4OC(C)(C)O[C@H]43)n2)c1 [Example 483] | 0.5 to 5
Cc1cccc(CNc2nc(C)c(-c3nc4ccccc4s3)c(N[C@@H]3C[C@H](CO)[C@H]4OC(C)(C)O[C@H]43)n2)c1 [Example 485] | 0.5 to 5
Cc1cccc(CNc2nc(C)c(-c3nc4ccccc4s3)c(N[C@@H]3C[C@H](CO)[C@@H](O)[C@H]3O)n2)c1 [Example 486] | < 0.5
Cc1ccccc1CNc1nc(C)c(-c2nc3ccccc3s2)c(N[C@@H]2C[C@H](CO)[C@H]3OC(C)(C)O[C@H]32)n1 [Example 487] | > 5
Cc1ccccc1CNc1nc(C)c(-c2nc3ccccc3s2)c(N[C@@H]2C[C@H](CO)[C@@H](O)[C@H]2O)n1 [Example 488] | < 0.5
Cc1ccc(CNc2nc(C)c(-c3nc4ccccc4s3)c(N[C@@H]3C[C@H](CO)[C@H]4OC(C)(C)O[C@H]43)n2)cc1 [Example 489] | 0.5 to 5
Cc1ccc(CNc2nc(C)c(-c3nc4ccccc4s3)c(N[C@@H]3C[C@H](CO)[C@@H](O)[C@H]3O)n2)cc1 [Example 490] | < 0.5
Cc1cc(CNc2nc(C)c(-c3nc4ccccc4s3)c(N[C@@H]3C[C@H](CO)[C@H]4OC(C)(C)O[C@H]43)n2)no1 [Example 491] | 0.5 to 5
Cc1cc(CNc2nc(C)c(-c3nc4ccccc4s3)c(N[C@@H]3C[C@H](CO)[C@@H](O)[C@H]3O)n2)no1 [Example 492] | < 0.5
Cc1cc(CNc2nc(C)c(-c3nc4ccccc4s3)c(N[C@@H]3C[C@H](CO)[C@@H](O)[C@H]3O)n2)on1 [Example 493] | < 0.5
Cc1nc(CNc2nc(C)c(-c3nc4ccccc4s3)c(N[C@@H]3C[C@H](CO)[C@H]4OC(C)(C)O[C@H]43)n2)cs1 [Example 494] | > 5
Cc1nc(CNc2nc(C)c(-c3nc4ccccc4s3)c(N[C@@H]3C[C@H](CO)[C@@H](O)[C@H]3O)n2)cs1 [Example 495] | < 0.5
Cc1ccc(CNc2nc(C)c(-c3nc4ccccc4s3)c(N[C@@H]3C[C@H](CO)[C@H]4OC(C)(C)O[C@H]43)n2)s1 [Example 496] | < 0.5
Cc1ccc(CNc2nc(C)c(-c3nc4ccccc4s3)c(N[C@@H]3C[C@H](CO)[C@@H](O)[C@H]3O)n2)s1 [Example 497] | < 0.5
Cc1cccnc1CNc1nc(C)c(-c2nc3ccccc3s2)c(N[C@@H]2C[C@H](CO)[C@H]3OC(C)(C)O[C@H]32)n1 [Example 498] | > 5
Cc1cccnc1CNc1nc(C)c(-c2nc3ccccc3s2)c(N[C@@H]2C[C@H](CO)[C@@H](O)[C@H]2O)n1 [Example 499] | < 0.5
COc1cc(CNc2nc(C)c(-c3nc4ccccc4s3)c(N[C@@H]3C[C@H](CO)[C@H]4OC(C)(C)O[C@H]43)n2)cc(OC)c1 [Example 500] | < 0.5
CCc1cc2cc(-c3c(Cl)nc(NCCOC)nc3N[C@@H]3C[C@H](CO)[C@@H](O)[C@H]3O)oc2cn1 [Example 501] | < 0.5
CCc1cc2cc(-c3c(Cl)nc(NC(C)C)nc3N[C@@H]3C[C@H](CO)[C@@H](O)[C@H]3O)oc2cn1 [Example 502] | < 0.5
